Some test systems named below: SNB-19; HL-60; IGROV-1; T47D; MDA-MB-435; MCF7; SK-MEL-28; A498; NCI/ADR-RES; KM12; MDA-N; RXF 393; LOX IMVI; SR; PC-3; DU-145; M14; SF-539; Hs-578T; COLO 205.
Common to all, as to experiment: growth of human tumour cells (NCI), 48 h

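1) Cells in 96-well plates. 2) Compound, 48 h, 5 concentrations. 3) Linear interpolation between surrounding doses. 4) Unreached endpoint = highest concentration. Here, GI50 denotes the concentration required for 50% inhibition of growth.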 Active and inactive are the calls of the source. Cut-off read from the data, not from the text of the source: active = GI50 up to about 1.1 µM and inactive = higher.

`N=c1oc2ccccc2cc1C(=O)NC12CC3CC(CC(C3)C1)C2`: the GI50 was 24.4 µM (inactive) in the assay with SNB-19; 9.16 µM (inactive) in the assay on HL-60; 16.5 µM (inactive) in the assay on IGROV-1; 4.52 µM (inactive) in the assay on T47D; 18.6 µM (inactive) in the assay on MDA-MB-435; 3.7 µM (inactive) in the assay on MCF7. Also, the GI50 is 40.4 µM (inactive) with SK-MEL-28; 22.1 µM (inactive) in the assay on A498; 24.2 µM (inactive) with NCI/ADR-RES; 12 µM (inactive) with KM12; 26.2 µM (inactive) in the assay with MDA-N; 6.52 µM (inactive) with RXF 393. In addition, the GI50 with LOX IMVI is 13.8 µM (inactive); in the assay on SR, 2.9 µM (inactive); with PC-3 it was 17.8 µM (inactive); in the assay with DU-145, 13.2 µM (inactive); with M14 it was 25.7 µM (inactive); in the assay on SF-539, 16.9 µM (inactive). Also, the GI50 was 32.4 µM (inactive) in the assay on Hs-578T and 14.1 µM (inactive) in the assay on COLO 205.

In the case of `O=C(/C=C\c1ccc(Cl)cc1Cl)c1cccs1`, the GI50 is 17 µM (inactive) in the assay on SNB-19; 37.2 µM (inactive) with HL-60; 21.9 µM (inactive) with T47D; 16.6 µM (inactive) with MDA-MB-435; 6.89 µM (inactive) with MCF7; 24.5 µM (inactive) in the assay on SK-MEL-28. Moreover, the GI50 in the assay with A498 was 19.7 µM (inactive); in the assay with NCI/ADR-RES, 30.4 µM (inactive); in the assay on KM12, 16.3 µM (inactive); in the assay with MDA-N it was 16.6 µM (inactive); in the assay with RXF 393, 24 µM (inactive); in the assay with LOX IMVI, > 10 µM (inactive). Moreover, the GI50 with SR was 5.61 µM (inactive); in the assay on PC-3, 16.4 µM (inactive); with DU-145, 21.3 µM (inactive); in the assay with M14, 18.8 µM (inactive); with SF-539, 19.8 µM (inactive); in the assay with Hs-578T, 24.8 µM (inactive). For the same compound, the GI50 in the assay with COLO 205 is 16.5 µM (inactive).

As for `COC(=O)CCC(=O)NC1=C(Nc2ccccc2)C(=O)c2ccccc2C1=O`, the GI50 in the assay with SNB-19 was 17.2 µM (inactive); with HL-60, 3.36 µM (inactive); with IGROV-1, 11.5 µM (inactive); with T47D, 13.3 µM (inactive); in the assay on MDA-MB-435, 1.97 µM (inactive); with MCF7, 3.89 µM (inactive). The GI50 in the assay on SK-MEL-28 is 8.51 µM (inactive); with A498, 15 µM (inactive); in the assay on NCI/ADR-RES it was 14.8 µM (inactive); with KM12, 15.7 µM (inactive); in the assay on MDA-N, 2.04 µM (inactive); in the assay with RXF 393, 8.81 µM (inactive). For the same compound, the GI50 in the assay on LOX IMVI was 4.34 µM (inactive); with SR, 11.4 µM (inactive); in the assay with PC-3, 12.4 µM (inactive); with DU-145 it was 10.8 µM (inactive); in the assay on M14, 3.58 µM (inactive); in the assay on SF-539, 13 µM (inactive). The values for the GI50 in the assay on Hs-578T and in the assay with COLO 205 were 7.18 µM (inactive) and 16.7 µM (inactive), respectively.

Take `N#Cc1c(Cl)cc(C#N)n2c1nc1ccccc12`: the GI50 in the assay on SNB-19 is > 53.1 µM (inactive); in the assay on HL-60, 1.18 µM (inactive); with IGROV-1 it was 14.6 µM (inactive); in the assay with T47D, 3.12 µM (inactive); in the assay on MDA-MB-435, 11.7 µM (inactive); in the assay with MCF7, 9.2 µM (inactive). The GI50 was 13.3 µM (inactive) in the assay on SK-MEL-28; 24.5 µM (inactive) in the assay on A498; 15.1 µM (inactive) with NCI/ADR-RES; 6.98 µM (inactive) in the assay on KM12; 10.6 µM (inactive) with MDA-N; 14.2 µM (inactive) with RXF 393. The GI50 with LOX IMVI is 2.5 µM (inactive); with SR, 0.532 µM (active); with PC-3, 18.2 µM (inactive); in the assay on DU-145, 20.8 µM (inactive); in the assay with M14 it was 9.71 µM (inactive); with SF-539, 7.24 µM (inactive). The GI50 was 25.8 µM (inactive) in the assay with Hs-578T and 4.4 µM (inactive) in the assay with COLO 205.

For the compound `COc1ccc2cc1Oc1ccc(cc1)C(Sc1ccccc1)CCOC(=O)CC2` (stereo not drawn), the GI50 is > 100 µM (inactive) in the assay on SNB-19; 28.1 µM (inactive) in the assay on HL-60; > 100 µM (inactive) in the assay with IGROV-1; 11.5 µM (inactive) in the assay on T47D; > 100 µM (inactive) with MDA-MB-435; > 100 µM (inactive) in the assay with MCF7. Moreover, the GI50 with SK-MEL-28, in the assay on A498, in the assay with NCI/ADR-RES, with KM12, in the assay on MDA-N and in the assay on RXF 393 was > 100 µM (inactive) in each case. The GI50 in the assay with LOX IMVI, in the assay on SR, in the assay on PC-3, in the assay on DU-145, in the assay with M14 and in the assay on SF-539 was > 100 µM (inactive) in each case. Moreover, the GI50 in the assay with Hs-578T and in the assay with COLO 205 was > 100 µM (inactive) each time.

With `C1=N\CCNCC/N=C/c2ccccc2OCc2cccc(n2)COc2ccccc2/1`, the GI50 in the assay on SNB-19 was > 22.4 µM (inactive); in the assay on HL-60 it was 2.56 µM (inactive); with IGROV-1, 24.5 µM (inactive); with T47D, 17.2 µM (inactive); with MDA-MB-435, 3.86 µM (inactive); in the assay with MCF7, 4.13 µM (inactive). The GI50 with SK-MEL-28 was 7.85 µM (inactive); in the assay with A498, > 100 µM (inactive); with NCI/ADR-RES it was 6.21 µM (inactive); in the assay with KM12, 20.5 µM (inactive); with MDA-N it was 3.18 µM (inactive); with RXF 393 it was 27.9 µM (inactive). Also, the GI50 in the assay with LOX IMVI was 5.31 µM (inactive); with SR, 4.06 µM (inactive); in the assay with PC-3, 19.2 µM (inactive); in the assay on DU-145, 26.3 µM (inactive); with M14 it was 8.02 µM (inactive); in the assay with SF-539 it was 2.72 µM (inactive). The GI50 is 9.51 µM (inactive) with Hs-578T and > 56.8 µM (inactive) with COLO 205.

As to `CC(=S)NC=C(C(N)=O)C(N)=O`, the GI50 with HL-60, in the assay on IGROV-1, with T47D, in the assay with MDA-MB-435, in the assay with MCF7 and with SK-MEL-28 was > 100 µM (inactive) each time. For the same compound, the GI50 in the assay with A498, in the assay with NCI/ADR-RES, in the assay on KM12, in the assay with MDA-N, in the assay with RXF 393 and in the assay on LOX IMVI was > 100 µM (inactive) throughout. Moreover, the GI50 with SR, with PC-3, in the assay on DU-145, in the assay with M14, in the assay on SF-539 and with Hs-578T was > 100 µM (inactive) throughout. Moreover, the GI50 with COLO 205 is > 100 µM (inactive).

Regarding `C=C1C(=O)C[C@H]2C(=C)C(=O)O[C@@H]2C2C1CC[C@@]2(C)O` (stereo partly drawn), the GI50 in the assay with SNB-19 was > 100 µM (inactive); in the assay with HL-60, > 100 µM (inactive); with IGROV-1 it was 33.1 µM (inactive); with T47D it was 28.2 µM (inactive); in the assay on MDA-MB-435 it was 30.3 µM (inactive); with MCF7 it was 16 µM (inactive). The GI50 in the assay on SK-MEL-28 was 27.4 µM (inactive); in the assay on A498, > 100 µM (inactive); with NCI/ADR-RES it was 26.2 µM (inactive); with KM12, 50 µM (inactive); with MDA-N, 29.7 µM (inactive); in the assay with RXF 393, 15.4 µM (inactive). The GI50 is 17.5 µM (inactive) in the assay on LOX IMVI; 27.1 µM (inactive) with SR; 30.6 µM (inactive) in the assay with PC-3; 73.3 µM (inactive) in the assay on DU-145; 16.1 µM (inactive) with M14; 26.8 µM (inactive) in the assay with SF-539. Further, the GI50 was 26.9 µM (inactive) with Hs-578T and 14.5 µM (inactive) in the assay with COLO 205.

In the case of `COC(=O)C1C(O)C(C)C(O)C(C)C=C(C)C2=C3C(=C(C)C(=O)c4c(O)c(c(C)c(OC(C)=O)c43)NC(=O)C(C)=C/C=C\C(C)C(O)C(C)C1O)OCO2` (stereo not drawn), the GI50 is > 100 µM (inactive) in the assay on SNB-19; 17.8 µM (inactive) with HL-60; 42.1 µM (inactive) with IGROV-1; 31 µM (inactive) in the assay with T47D; 15.7 µM (inactive) in the assay on MDA-MB-435; 25.3 µM (inactive) in the assay with MCF7. The GI50 is 22.3 µM (inactive) with SK-MEL-28; 29.4 µM (inactive) in the assay with A498; 40.5 µM (inactive) in the assay on NCI/ADR-RES; 31.9 µM (inactive) with KM12; 16.9 µM (inactive) in the assay with MDA-N; 24.9 µM (inactive) with RXF 393. For the same compound, the GI50 was 17.1 µM (inactive) in the assay with LOX IMVI; 19.7 µM (inactive) with SR; 22.8 µM (inactive) in the assay with PC-3; 57.7 µM (inactive) in the assay with DU-145; 25.2 µM (inactive) in the assay with M14; 37.8 µM (inactive) in the assay on SF-539. Also, the GI50 was 61.2 µM (inactive) in the assay on Hs-578T and 19.9 µM (inactive) in the assay on COLO 205.

Regarding `COc1ccc(C(=O)c2sc(Nc3ccc(Cl)cc3)nc2N)cc1`, the GI50 was 17.2 µM (inactive) with SNB-19; 0.473 µM (active) in the assay with HL-60; 5.93 µM (inactive) in the assay with IGROV-1; 37.6 µM (inactive) in the assay with T47D; 2.2 µM (inactive) with MDA-MB-435; 4.45 µM (inactive) in the assay with MCF7. Further, the GI50 is 29.4 µM (inactive) with SK-MEL-28; 17 µM (inactive) with A498; 5.37 µM (inactive) with NCI/ADR-RES; 4.48 µM (inactive) in the assay with KM12; 2.37 µM (inactive) in the assay with MDA-N; 14.1 µM (inactive) in the assay on RXF 393. The GI50 with LOX IMVI is 9.42 µM (inactive); in the assay on SR, 1.93 µM (inactive); in the assay with PC-3, 12.1 µM (inactive); in the assay on DU-145 it was 25 µM (inactive); with M14, > 63.8 µM (inactive); with SF-539, 14 µM (inactive). For the same compound, the GI50 in the assay with Hs-578T was 11.2 µM (inactive); in the assay on COLO 205 it was > 21.2 µM (inactive).

For the origin of these results see ChEMBL document CHEMBL1201862, “PubChem BioAssay data set” (2004).
